US10870652B2, “Compounds and methods for modulating bruton's tyrosine kinase” (CORVUS PHARMACEUTICALS, INC., priority 2016, dated 2020)

Columns and labels:
Format in all cases: biochemical
ITK = target: T1, ITK (Homo sapiens, UniProt Q08881); assay: ITK IC50 kinase inhibition assay
T1 sequence (Q08881 1-620): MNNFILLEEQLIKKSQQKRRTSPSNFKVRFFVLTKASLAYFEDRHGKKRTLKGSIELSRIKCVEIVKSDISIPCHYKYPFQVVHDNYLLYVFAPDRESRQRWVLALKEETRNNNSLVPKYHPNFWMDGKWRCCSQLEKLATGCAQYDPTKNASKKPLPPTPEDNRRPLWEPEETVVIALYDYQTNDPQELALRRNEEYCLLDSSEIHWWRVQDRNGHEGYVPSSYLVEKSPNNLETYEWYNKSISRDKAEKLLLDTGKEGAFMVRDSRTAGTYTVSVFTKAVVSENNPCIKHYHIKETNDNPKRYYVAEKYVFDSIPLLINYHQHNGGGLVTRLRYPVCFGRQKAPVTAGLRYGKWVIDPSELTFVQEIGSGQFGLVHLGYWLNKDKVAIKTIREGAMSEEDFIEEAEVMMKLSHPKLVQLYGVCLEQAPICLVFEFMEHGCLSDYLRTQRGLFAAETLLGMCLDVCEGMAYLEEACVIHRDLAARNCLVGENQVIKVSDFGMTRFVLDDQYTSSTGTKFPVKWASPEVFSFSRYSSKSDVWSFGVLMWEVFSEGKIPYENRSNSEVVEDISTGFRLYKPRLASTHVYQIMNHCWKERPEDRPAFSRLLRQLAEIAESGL

BTK = BTK (Homo sapiens, UniProt Q06187); assay: BTK IC50 kinase inhibition assay
Chain of BTK (Q06187 whole entry): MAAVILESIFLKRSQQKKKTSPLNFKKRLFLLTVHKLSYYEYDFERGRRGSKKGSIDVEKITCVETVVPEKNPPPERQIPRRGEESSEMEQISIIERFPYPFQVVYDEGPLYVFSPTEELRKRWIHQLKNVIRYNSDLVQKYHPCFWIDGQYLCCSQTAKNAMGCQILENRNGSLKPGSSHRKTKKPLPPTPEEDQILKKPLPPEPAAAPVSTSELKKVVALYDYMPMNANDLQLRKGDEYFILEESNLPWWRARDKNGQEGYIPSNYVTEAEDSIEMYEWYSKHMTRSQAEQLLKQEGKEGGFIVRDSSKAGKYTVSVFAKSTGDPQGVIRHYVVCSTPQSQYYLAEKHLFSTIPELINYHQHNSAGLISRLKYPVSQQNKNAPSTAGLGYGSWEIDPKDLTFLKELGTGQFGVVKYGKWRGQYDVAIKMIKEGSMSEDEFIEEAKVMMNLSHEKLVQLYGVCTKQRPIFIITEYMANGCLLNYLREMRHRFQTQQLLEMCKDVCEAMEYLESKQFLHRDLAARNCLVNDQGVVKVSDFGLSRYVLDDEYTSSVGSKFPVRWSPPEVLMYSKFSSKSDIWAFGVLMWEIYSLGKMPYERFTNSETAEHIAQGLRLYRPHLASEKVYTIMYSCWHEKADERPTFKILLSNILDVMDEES

TXK = target: T2, TXK (Homo sapiens, UniProt P42681); assay: TXK IC50 kinase inhibition assay
T2 sequence (P42681 1-527): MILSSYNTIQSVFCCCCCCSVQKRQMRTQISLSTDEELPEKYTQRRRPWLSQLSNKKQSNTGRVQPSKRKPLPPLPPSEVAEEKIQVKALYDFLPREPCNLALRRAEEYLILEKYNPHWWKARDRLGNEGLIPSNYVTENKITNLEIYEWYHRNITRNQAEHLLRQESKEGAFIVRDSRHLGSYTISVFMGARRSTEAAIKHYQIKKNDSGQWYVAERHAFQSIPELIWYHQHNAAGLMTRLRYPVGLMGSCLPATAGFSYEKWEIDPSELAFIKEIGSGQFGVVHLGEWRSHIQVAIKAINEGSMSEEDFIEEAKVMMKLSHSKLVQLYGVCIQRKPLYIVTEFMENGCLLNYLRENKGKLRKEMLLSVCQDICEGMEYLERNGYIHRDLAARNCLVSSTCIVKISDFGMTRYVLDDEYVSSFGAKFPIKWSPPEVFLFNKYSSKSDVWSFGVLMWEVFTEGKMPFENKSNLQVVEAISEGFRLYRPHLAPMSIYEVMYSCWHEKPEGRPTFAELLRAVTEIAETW

JAK3 = target: T3, JAK3 (Homo sapiens, UniProt P52333); assay: JAK3 IC50 kinase inhibition assay
T3 sequence (P52333 1-1124): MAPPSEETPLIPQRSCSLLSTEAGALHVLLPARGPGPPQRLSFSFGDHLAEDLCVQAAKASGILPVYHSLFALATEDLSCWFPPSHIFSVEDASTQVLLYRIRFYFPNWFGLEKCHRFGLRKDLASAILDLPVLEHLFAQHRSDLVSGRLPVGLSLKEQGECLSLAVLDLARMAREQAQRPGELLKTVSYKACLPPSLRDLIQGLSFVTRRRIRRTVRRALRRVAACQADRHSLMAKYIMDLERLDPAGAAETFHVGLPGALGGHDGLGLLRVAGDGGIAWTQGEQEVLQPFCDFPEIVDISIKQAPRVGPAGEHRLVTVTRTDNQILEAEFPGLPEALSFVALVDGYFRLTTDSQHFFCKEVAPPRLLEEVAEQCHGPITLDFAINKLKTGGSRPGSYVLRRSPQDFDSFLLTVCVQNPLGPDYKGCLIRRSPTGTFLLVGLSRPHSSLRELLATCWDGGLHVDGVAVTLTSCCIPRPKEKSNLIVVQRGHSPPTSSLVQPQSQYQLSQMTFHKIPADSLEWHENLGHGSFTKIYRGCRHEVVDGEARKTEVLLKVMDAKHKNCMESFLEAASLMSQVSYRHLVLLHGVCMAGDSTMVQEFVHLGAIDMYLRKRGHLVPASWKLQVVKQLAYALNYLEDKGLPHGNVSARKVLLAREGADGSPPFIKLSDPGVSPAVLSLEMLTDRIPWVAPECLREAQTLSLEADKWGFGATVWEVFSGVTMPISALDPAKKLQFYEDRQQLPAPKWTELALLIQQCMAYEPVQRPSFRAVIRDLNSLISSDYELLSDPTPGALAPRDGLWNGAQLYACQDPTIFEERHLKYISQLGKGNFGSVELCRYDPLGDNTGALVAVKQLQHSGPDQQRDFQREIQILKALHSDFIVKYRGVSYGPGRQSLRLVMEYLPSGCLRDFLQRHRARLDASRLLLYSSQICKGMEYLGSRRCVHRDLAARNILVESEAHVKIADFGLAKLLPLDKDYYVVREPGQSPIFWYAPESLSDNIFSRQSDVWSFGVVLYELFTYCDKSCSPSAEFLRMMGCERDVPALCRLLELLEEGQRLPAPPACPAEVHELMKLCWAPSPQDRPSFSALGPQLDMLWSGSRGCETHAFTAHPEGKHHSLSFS

| IC50 (ITK) [nM] | IC50 (BTK) [nM] | IC50 (TXK) [nM] | IC50 (JAK3) [nM] | Structure (SMILES) |
| --- | --- | --- | --- | --- |
| > 500 | > 500 | > 500 | > 500 | CC#CC(=O)N1CC(Cn2nc(-c3ccc(Oc4ccccc4)cc3)c3cncnc32)C1 [Compound A58, 1-(3-((3-(4-phenoxyphenyl)-1H-pyrazolo[3,4-d]pyrimidin-1-yl)methyl)azetidin-1-yl)but-2-yn-1-one] |
| > 500 | 100 to 500 | 100 to 500 | > 500 | C=C(F)C(=O)N1CCC[C@@H](n2nc(-c3ccc(Oc4ccccc4)cc3)c3cncnc32)C1 [Compound A62, (R)-2-fluoro-1-(3-(3-(4-phenoxyphenyl)-1H-pyrazolo[3,4-d]pyrimidin-1-yl)piperidin-1-yl)prop-2-en-1-one] |
| > 500 | 100 to 500 | > 500 | > 500 | CC#CC(=O)N1CC[C@@H](Cn2nc(-c3ccc(Oc4ccccc4)cc3)c3cncnc32)C1 [Compound A63, (R)-1-(3-((3-(4-phenoxyphenyl)-1H-pyrazolo[3,4-d]pyrimidin-1-yl)methyl)pyrrolidin-1-yl)but-2-yn-1-one] |
| > 500 | < 100 | 100 to 500 | > 500 | CC#CC(=O)N1CC[C@H](Cn2nc(-c3ccc(Oc4ccccc4)cc3)c3cncnc32)C1 [Compound A64, (S)-1-(3-((3-(4-phenoxyphenyl)-1H-pyrazolo[3,4-d]pyrimidin-1-yl)methyl)pyrrolidin-1-yl)but-2-yn-1-one] |
| > 500 | 100 to 500 | > 500 | > 500 | CC#CC(=O)N1CCC[C@@H]1Cn1nc(-c2ccc(Oc3ccccc3)cc2)c2cncnc21 [Compound A65, (R)-1-(2-((3-(4-phenoxyphenyl)-1H-pyrazolo[3,4-d]pyrimidin-1-yl)methyl)pyrrolidin-1-yl)but-2-yn-1-one] |
| > 500 | 100 to 500 | > 500 | > 500 | CC#CC(=O)N1CC[C@H]1Cn1nc(-c2ccc(Oc3ccccc3)cc2)c2cncnc21 [Compound A66, (S)-1-(2-((3-(4-phenoxyphenyl)-1H-pyrazolo[3,4-d]pyrimidin-1-yl)methyl)azetidin-1-yl)but-2-yn-1-one] |
| > 500 | 100 to 500 | > 500 | > 500 | CC#CC(=O)N1CC[C@@H]1Cn1nc(-c2ccc(Oc3ccccc3)cc2)c2cncnc21 [Compound A67, (R)-1-(2-((3-(4-phenoxyphenyl)-1H-pyrazolo[3,4-d]pyrimidin-1-yl)methyl)azetidin-1-yl)but-2-yn-1-one] |
| > 500 | < 100 | < 100 | > 500 | C=CC(=O)N1CCC[C@@H](n2nc(-c3ccc(Oc4ccccc4)cc3)c3cncc(C#N)c32)C1 [Compound A72, (R)-1-(1-acryloylpiperidin-3-yl)-3-(4-phenoxyphenyl)-1H-pyrazolo[4,3-c]pyridine-7-carbonitrile] |
| > 500 | < 100 | < 100 | > 500 | C=CC(=O)N1CC[C@@H](n2nc(-c3ccc(Oc4ccccc4)cc3)c3cncc(C#N)c32)C1 [Compound A73, (R)-1-(1-acryloylpyrrolidin-3-yl)-3-(4-phenoxyphenyl)-1H-pyrazolo[4,3-c]pyridine-7-carbonitrile] |
| > 500 | < 100 | > 500 | > 500 | C=CC(=O)N1CCC[C@H]1Cn1nc(-c2ccc(Oc3ccccc3)cc2)c2cncc(C#N)c21 [Compound A74, (S)-1-((1-Acryloylpyrrolidin-2-yl)methyl)-3-(4-phenoxyphenyl)-1H-pyrazolo[4,3-c]pyridine-7-carbonitrile] |

More lines, now with the values behind:

| Structure (SMILES) | IC50 (ITK) [nM] | IC50 (BTK) [nM] | IC50 (TXK) [nM] | IC50 (JAK3) [nM] |
| --- | --- | --- | --- | --- |
| CC#CC(=O)N1CCC(n2nc(-c3ccc(Oc4ccccc4)cc3)c3cncnc32)CC1 [Compound A59, 1-(4-(3-(4-phenoxyphenyl)-1H-pyrazolo[3,4-d]pyrimidin-1-yl)piperidin-1-yl)but-2-yn-1-one] | > 500 | 100 to 500 | > 500 | > 500 |
| CC#CC(=O)N1CC2(CC(n3nc(-c4ccc(Oc5ccccc5)cc4)c4cncnc43)C2)C1 [Compound A60, 1-(6-(3-(4-phenoxyphenyl)-1H-pyrazolo[3,4-d]pyrimidin-1-yl)-2-azaspiro[3.3]heptan-2-yl)but-2-yn-1-one] | > 500 | < 100 | < 100 | > 500 |
| CC#CC(=O)Nc1ccccc1Cn1nc(-c2ccc(Oc3ccccc3)cc2)c2cncnc21 [Compound A61, N-(2-((3-(4-phenoxyphenyl)-1H-pyrazolo[3,4-d]pyrimidin-1-yl)methyl)phenyl)but-2-ynamide] | > 500 | > 500 | < 100 | > 500 |
| CC#CC(=O)N1CCC2(CC1)CC(n1nc(-c3ccc(Oc4ccccc4)cc3)c3cncnc31)C2 [Compound A68, 1-(2-(3-(4-phenoxyphenyl)-1H-pyrazolo[3,4-d]pyrimidin-1-yl)-7-azaspiro[3.5]nonan-7-yl)but-2-yn-1-one] | > 500 | > 500 | > 500 | > 500 |
| CC#CC(=O)N[C@H]1C[C@H](n2nc(-c3ccc(Oc4ccccc4)cc3)c3cncnc32)C1 [Compound A69, N-((1r,3r)-3-(3-(4-phenoxyphenyl)-1H-pyrazolo[3,4-d]pyrimidin-1-yl)cyclobutyl)but-2-ynamide] | > 500 | < 100 | > 500 | > 500 |
| CC#CC(=O)N[C@H]1CC[C@H](n2nc(-c3ccc(Oc4ccccc4)cc3)c3cncnc32)CC1 [Compound A70, N-((1r,4r)-4-(3-(4-phenoxyphenyl)-1H-pyrazolo[3,4-d]pyrimidin-1-yl)cyclohexyl)but-2-ynamide] | > 500 | > 500 | > 500 | > 500 |
| CCC#CC(=O)N1CC2(CC(n3nc(-c4ccc(Oc5ccccc5)cc4)c4cncnc43)C2)C1 [Compound A71, 1-(6-(3-(4-phenoxyphenyl)-1H-pyrazolo[3,4-d]pyrimidin-1-yl)-2-azaspiro[3.3]heptan-2-yl)pent-2-yn-1-one] | > 500 | 100 to 500 | 100 to 500 | > 500 |
| CN(C)CC#CC(=O)N1CC2(CC(n3nc(-c4ccc(Oc5ccccc5)cc4)c4cncnc43)C2)C1 [Compound A75, 4-(dimethylamino)-1-(6-(3-(4-phenoxyphenyl)-1H-pyrazolo[3,4-d]pyrimidin-1-yl)-2-azaspiro[3.3]heptan-2-yl)but-2-yn-1-one] | 100 to 500 | < 100 | < 100 | 100 to 500 |
